This note sets out measurements from US20250034170A1, “SMALL MOLECULE MODULATORS OF GLUCOCEREBROSIDASE ACTIVITY AND USES THEREOF” (Vanqua Bio, Inc., priority 2021, published 2025).

Molecules are shown by their SMILES.

The EC50 is the concentration giving half of the maximal effect.

In this test the target is T1, GCase (Homo sapiens, UniProt P04062).
T1 construct: endogenous in cells; host or cells: HeLa cells
T1 sequence (P04062 40-536): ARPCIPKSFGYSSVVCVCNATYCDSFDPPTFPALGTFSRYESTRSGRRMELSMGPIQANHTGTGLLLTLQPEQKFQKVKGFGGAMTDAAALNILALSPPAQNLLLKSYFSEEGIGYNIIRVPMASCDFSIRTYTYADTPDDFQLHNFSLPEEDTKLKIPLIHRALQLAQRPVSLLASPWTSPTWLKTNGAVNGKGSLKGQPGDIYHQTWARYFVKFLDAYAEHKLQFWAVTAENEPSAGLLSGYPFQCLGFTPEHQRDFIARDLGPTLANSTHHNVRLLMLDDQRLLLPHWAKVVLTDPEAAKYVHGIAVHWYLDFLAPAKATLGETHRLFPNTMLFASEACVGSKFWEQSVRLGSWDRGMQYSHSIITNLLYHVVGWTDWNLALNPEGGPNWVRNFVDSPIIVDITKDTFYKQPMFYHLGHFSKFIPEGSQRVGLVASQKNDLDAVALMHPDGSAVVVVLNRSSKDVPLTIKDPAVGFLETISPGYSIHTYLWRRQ
Nature of the test: activation of GCase in a live cell PFB assay in HELA cells. The test is classed as cell-based. The conditions noted are these: activation of GCase, EC50 ranges. The protocol: Exemplary compounds were evaluated for activation of GCase in a live cell PFB assay in HELA cells (essentially as described in Ysselstein et al., “LRRK2 kinase activity regulates lysosomal glucocerebrosidase in neurons derived from Parkinson's disease patients” Nature Communications (2019) 10:5570). […] EC50 ranges: A: <10 μM; B: >10-50 μM; C: >50-100 μM; D: >100 μM.
`O=C1CC2(CCN(c3cnc4cnn(C5COC5)c4n3)CC2)CN1c1ccc(C(F)(F)F)nc1` [Cmpd 856] had a concentration giving a half-maximal response (EC50) of 10 to 50 µM. For `O=C1CC2(CCN(c3cnc4cnn(C5COC5)c4n3)CC2)CN1c1ccc(C(F)(F)F)cn1` [Cmpd 857], the EC50 is under 10 µM. Turning to `CCC1N(c2ccc(C(F)(F)F)nc2)C(=O)CC12CCN(c1cnc3cnn(C4COC4)c3n1)CC2` (stereo not shown) [Cmpd 858], the EC50 was 10 to 50 µM. For the compound `CCC1N(c2ccc(C(F)(F)F)cn2)C(=O)CC12CCN(c1cnc3cnn(C4COC4)c3n1)CC2` (stereo not shown) [Cmpd 859], the EC50 is 10 to 50 µM. As for `CCN1C(=O)N(c2cnc3cnn(CC(F)F)c3n2)C(=O)C12CCN(c1ccc(C(F)(F)F)cn1)CC2` [Cmpd 860], the figure is 10 to 50 µM; as for `CCN1C(=O)N(c2cnc3cnn(CC(F)F)c3n2)C(=O)C12CCN(c1ccc(C(F)(F)F)nc1)CC2` [Cmpd 861], under 10 µM. Take `O=C1CC2(CCN(c3cnc4cnn(C5COC5)c4n3)CC2)CN1c1cnc(C(F)(F)F)cn1` [Cmpd 862]: the EC50 was over 100 µM. To `O=C1C[C@@]2(CC3CCC2CN3c2cnc3cnn(CC(F)F)c3n2)CN1c1ccc(C(F)(F)F)cn1` (stereo partly shown) [Cmpd 863] belongs under 10 µM; to `O=C1C[C@]2(CC3CCC2CN3c2cnc3cnn(CC(F)F)c3n2)CN1c1ccc(C(F)(F)F)cn1` (stereo partly shown) [Cmpd 864], 10 to 50 µM. `O=C1CC2(CC3CCC2CN3c2cnc3cnn(CC(F)F)c3n2)CN1c1ccc(C(F)(F)F)nc1` (stereo not shown) [Cmpd 865] registered an EC50 of 10 to 50 µM. Regarding `CCN1C(=O)N(c2ccc(C(F)(F)F)nc2)C(=O)C12CCN(c1cnc3cnn(C4COC4)c3n1)CC2` [Cmpd 866], the EC50 fell in the range of 10 to 50 µM. For `CC(C)N1C(=O)N(c2ccc(C(F)(F)F)nc2)C(=O)C12CCN(c1cnc3cnn(C4COC4)c3n1)CC2` [Cmpd 867], the EC50 is over 100 µM. To `CCN1C(=O)N(c2ccc(C(F)(F)F)cc2)C(=O)C12CCN(c1cnc3cnn(CC(F)F)c3n1)CC2` [Cmpd 868] belongs 10 to 50 µM; to `CCN1C(=O)N(c2ccc(C(F)(F)F)cc2)C(=O)C12CCN(c1cnc3cnn(C4COC4)c3n1)CC2` [Cmpd 869], 10 to 50 µM; to `CCN1C(=O)N(c2ccc(C(F)(F)F)nc2)C(=O)C12CCN(c1cnc3c(C)nn(C4COC4)c3n1)CC2` [Cmpd 870], over 100 µM. As for `CCN1C(=O)N(c2ccc(C(F)(F)F)nc2)C(=O)C12CCN(c1cnc3c(C)nn(CC(F)F)c3n1)CC2` [Cmpd 871], the figure is 10 to 50 µM. As to `CCN1C(=O)N(c2ccc(C(F)(F)F)cc2)C(=O)C12CCN(c1cnc3c(C)nn(CC(F)F)c3n1)CC2` [Cmpd 872], the EC50 was under 10 µM.

Turning to `CCN1C(=O)N(c2ccc(C(F)(F)F)nc2)C(=O)C12CCN(c1ncc3cnn(CC(F)F)c3n1)CC2` [Cmpd 873], the EC50 lay within 10 to 50 µM. For the compound `CCN1C(=O)N(c2ccc(C(F)(F)F)nc2)C(=O)C12CCN(c1ncc3c(C)nn(CC(F)F)c3n1)CC2` [Cmpd 874], the EC50 is under 10 µM.

Turning to `O=C1N(c2ccc(C(F)(F)F)nc2)C(=O)C2(CCN(c3ncc4cnn(CC(F)F)c4n3)CC2)N1CC(F)F` [Cmpd 875], the EC50 was under 10 µM. Regarding `O=C1N(c2ccc(C(F)(F)F)nc2)C(=O)C2(CCN(c3cnc4cnn(CC(F)F)c4n3)CC2)N1CC(F)F` [Cmpd 876], the EC50 was 10 to 50 µM.

The compound `O=C1N(c2ccc(C(F)(F)F)nc2)C(=O)C2(CCN(c3cnc4cnn(CC(F)F)c4n3)CC2)N1CCOC(F)(F)F` [Cmpd 877] had an EC50 of under 10 µM. Compound `CCN1C(=O)N(c2ccc(C(F)(F)F)nc2)C(=O)C12CCN(c1ncc3c(C)nn(C4COC4)c3n1)CC2` [Cmpd 878] registered an EC50 of 10 to 50 µM. As for `CN1C(=O)N(c2ccc(C(F)(F)F)nc2)C(=O)C12CCN(c1cnc3cnn(CC(F)F)c3n1)CC2` [Cmpd 879], the figure is under 10 µM; as for `O=C1N(c2ccc(C(F)(F)F)nc2)C(=O)C2(CCN(c3cnc4cnn(CC(F)F)c4n3)CC2)N1CCC1CC1` [Cmpd 880], under 10 µM; as for `O=C1N(c2ccc(C(F)(F)F)nc2)C(=O)C2(CCN(c3cnc4cnn(CC(F)F)c4n3)CC2)N1CCCC(F)(F)F` [Cmpd 881], under 10 µM.

Turning to `O=C1N(c2ccc(C(F)(F)F)nc2)C(=O)C2(CCN(c3cnc4cnn(CC(F)F)c4n3)CC2)N1Cc1cncc(F)c1` [Cmpd 883], the EC50 was in the range of 10 to 50 µM. `Cc1nn(C2COC2)c2nc(N3CCC4(CC3)CCN(c3ccc(C(F)(F)F)nc3)C4=O)ncc12` [Cmpd 884]: the EC50 lay within 10 to 50 µM.

The compound `Cc1nn(C2COC2)c2nc(N3CCC4(CC3)CCN(c3ccc(C(F)(F)F)nc3)C4=O)cnc12` [Cmpd 885] came in with an EC50 of 10 to 50 µM.

For `O=C1N(c2ccc(C(F)(F)F)nc2)CCC12CCN(c1cnc3cnn(C4COC4)c3n1)CC2` [Cmpd 886], the concentration for a half-maximal effect (EC50) lay in the range of 10 to 50 µM. To `Cc1nn(C2COC2)c2nc(N3CCC4(CCN(c5ccc(C(F)(F)F)nc5)C4)CC3)ncc12` [Cmpd 887] belongs 10 to 50 µM. To `Cc1nn(C2COC2)c2nc(N3CCC4(CCN(c5ccc(C(F)(F)F)nc5)C4)CC3)cnc12` [Cmpd 888] belongs under 10 µM; to `CCn1ncc2cnc(N3CCC4(CC3)CC(=O)N(c3ccc(C(F)(F)F)nc3)C4)nc21` [Cmpd 889], under 10 µM; to `CCn1ncc2ncc(N3CCC4(CC3)CC(=O)N(c3ccc(C(F)(F)F)nc3)C4)nc21` [Cmpd 890], under 10 µM. For `O=C1CC2(CCN(c3cnc4cnn(CC(F)F)c4n3)CC2)CN1c1ccc(Cl)nc1` [Cmpd 891], the EC50 was in the range of 10 to 50 µM. To `O=C1CC2(CCN(c3cnc4cnn(CC(F)F)c4n3)CC2)CN1c1cncc(Cl)c1` [Cmpd 893] belongs under 10 µM.

Compound `O=C1CC2(CCN(c3cnc4cnn(CC(F)F)c4n3)CC2)CN1Cc1cnc(OCC(F)(F)F)nc1` [Cmpd 894] returned an EC50 of 10 to 50 µM. `O=C1CC2(CCN(c3cnc4cnn(CC(F)F)c4n3)CC2)CN1c1ccnc(C(F)(F)F)n1` [Cmpd 895] registered an EC50 of under 10 µM.

`O=C1N(c2ccnc(C(F)(F)F)n2)CCC12CCN(c1cnc3cnn(CC(F)F)c3n1)CC2` [Cmpd 896] showed a half-maximal effective concentration (EC50) of under 10 µM. On to `Cc1nn(CC(F)F)c2nc(N3CCC4(CC3)CCN(c3ccnc(C(F)(F)F)n3)C4=O)cnc12` [Cmpd 897], for which the EC50 was under 10 µM. As for `Cc1nn(CC(F)F)c2nc(N3CCC4(CC3)CC(=O)N(c3ccnc(C(F)(F)F)n3)C4)cnc12` [Cmpd 898], the EC50 is under 10 µM.

For the compound `Cc1nc(N2CC3(CCN(c4ncc5c(n4)n(C4COC4)c(=O)n5C)C3)C2)cc(C(F)(F)F)n1` [Cmpd 899], the concentration giving a half-maximal response (EC50) is under 10 µM. For `O=C1N(c2ccnc(C(F)(F)F)n2)CCC12CCN(c1ncc3cnn(CC(F)F)c3n1)CC2` [Cmpd 900], the EC50 is under 10 µM.

`O=C1CC2(CCN(c3ncc4cnn(CC(F)F)c4n3)CC2)CN1c1ccnc(C(F)(F)F)n1` [Cmpd 901] had an EC50 of under 10 µM. To `Cc1nn(CC(F)F)c2nc(N3CCC4(CC3)CC(=O)N(c3ccnc(C(F)(F)F)n3)C4)ncc12` [Cmpd 903] belongs under 10 µM; to `CCC1N(c2ccnc(C(F)(F)F)n2)C(=O)CC12CCN(c1cnc3cnn(CC(F)F)c3n1)CC2` (stereo not shown) [Cmpd 904], under 10 µM.

The compound `CCC1N(c2cnc(C(F)(F)F)nc2)C(=O)CC12CCN(c1cnc3cnn(CC(F)F)c3n1)CC2` (stereo not shown) [Cmpd 905] gave a half-maximal effective concentration (EC50) of 10 to 50 µM. Take `CCN1C(=O)N(c2ccnc(C(F)(F)F)n2)C(=O)C12CCN(c1cnc3cnn(CC(F)F)c3n1)CC2` [Cmpd 906]: the EC50 is 10 to 50 µM. To `O=C1CC2(CCN(c3cnc4cnn(C5COC5)c4n3)CC2)CN1c1ccnc(C(F)(F)F)n1` [Cmpd 907] belongs under 10 µM.
